Data set [1] concerns Homo sapiens. As to the kind of experiment: Total drug excretion in healthy obese adult male human treated with [14C]CP-945,598 at 25 mg, po administered as single dose after 0 to 384 hrs hrs by HPLC method. It counts as ADME, organism-based. Particulars: in vivo.
Data set [2] in a line: Drug excretion in feces of healthy obese adult male human treated with [14C]CP-945,598 at 25 mg, po administered as single dose after 0 to 384 hrs hrs by HPLC method. It counts as ADME, organism-based. Particulars: in vivo.
A short description of data set [3]: Drug excretion in urine of healthy obese adult male human treated with [14C]CP-945,598 at 25 mg, po administered as single dose after 0 to 384 hrs hrs by HPLC method. The data set is classed as ADME, organism-based. Particulars: in vivo.
The target of data set [4] is Cytochrome P450 3A4 (Homo sapiens, UniProt P08684). As to the kind of experiment: Drug metabolism assessed as human recombinant CYP3A4-mediated metabolite formation after 60 mins by HPLC method. The data set is classed as ADME. Particulars: recombinant enzyme, 1 h.
Chain of Cytochrome P450 3A4 (P08684 whole entry): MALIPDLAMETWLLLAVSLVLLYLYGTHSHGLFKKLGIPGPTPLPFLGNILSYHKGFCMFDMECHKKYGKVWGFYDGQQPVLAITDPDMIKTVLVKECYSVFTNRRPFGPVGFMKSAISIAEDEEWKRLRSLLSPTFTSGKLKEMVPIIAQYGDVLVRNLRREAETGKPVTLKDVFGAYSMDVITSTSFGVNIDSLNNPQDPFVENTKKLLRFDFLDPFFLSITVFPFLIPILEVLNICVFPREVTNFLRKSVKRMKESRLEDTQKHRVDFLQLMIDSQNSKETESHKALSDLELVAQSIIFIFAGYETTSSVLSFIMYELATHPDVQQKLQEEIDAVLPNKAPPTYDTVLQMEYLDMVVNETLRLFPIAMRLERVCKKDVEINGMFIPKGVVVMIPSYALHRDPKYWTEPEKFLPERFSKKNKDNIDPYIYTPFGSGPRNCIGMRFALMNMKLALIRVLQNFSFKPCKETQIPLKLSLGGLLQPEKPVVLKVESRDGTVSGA
In data set [5] the test system is Serum. Kind of data set: Drug level in serum of healthy obese adult male human treated with [14C]CP-945,598 at 25 mg, po administered as single dose after 12 hrs by HPLC method. Particulars: in vivo. The data set is classed as ADME, organism-based.
For data set [6], the system named is Serum. Kind of data set: Drug level in serum of healthy obese adult male human treated with [14C]CP-945,598 at 25 mg, po administered as single dose after 48 hrs by HPLC method. It counts as ADME, organism-based. Particulars: in vivo.
The test system of data set [7] is Serum. Kind of data set: Drug level in serum of healthy obese adult male human treated with [14C]CP-945,598 at 25 mg, po administered as single dose after 24 hrs by HPLC method. The data set is classed as ADME, organism-based. Particulars: in vivo.
The test system of data set [8] is Serum. As to the kind of experiment: AUC in serum of healthy obese adult male human treated with [14C]CP-945,598 at 25 mg, po administered as single dose after 48 hrs by HPLC method. It counts as ADME, organism-based. On the set-up: time < 48 hr, dose 25 mg, route oral. Particulars: in vivo.
In data set [9] the test system is Serum. As to the kind of experiment: Drug level in serum of healthy obese adult male human treated with [14C]CP-945,598 at 25 mg, po administered as single dose after 4 hrs by HPLC method. The data set is classed as ADME, organism-based. Particulars: in vivo.
The subject of data set [10] is Serum. As to the kind of experiment: Total drug level in serum of healthy obese adult male human treated with [14C]CP-945,598 at 25 mg, po administered as single dose after 48 hrs by HPLC method. It counts as ADME, organism-based. Particulars: in vivo.
Data set [11] can be described thus: Bioavailability in dog. Particulars: in vivo. The data set is classed as ADME, organism-based, Canis lupus familiaris.
In data set [12] the test system is Homo sapiens. Kind of data set: AUC (0 to last) in healthy obese adult male human at 25 mg, po administered as single dose. The data set is classed as ADME, organism-based, Plasma. On the set-up: dose 25 mg, time 0 - last, route oral. Particulars: in vivo.
A short description of data set [13]: Cmax in healthy obese adult male human at 25 mg, po administered as single dose. The data set is classed as ADME, organism-based. On the set-up: dose 25 mg, route oral. Particulars: in vivo.
Data set [14] in a line: Bioavailability in rat. It counts as ADME, organism-based. Particulars: in vivo.
Data set [15] deals with Homo sapiens. Kind of data set: AUC (0 to infinity) in healthy obese adult male human at 25 mg, po administered as single dose. It counts as ADME, organism-based, Plasma. Particulars: in vivo. Further details: dose 25 mg, route oral, time infinity.
A short description of data set [16]: Tmax in healthy obese adult male human at 25 mg, po administered as single dose. Particulars: in vivo. It counts as ADME, organism-based.
The nature of data set [17]: Terminal elimination half life in healthy obese adult male human at 25 mg, po administered as single dose. It counts as ADME, organism-based. Particulars: in vivo, read-out: beta t1/2 (converted).
Data set [18] can be described thus: Terminal phase half life in human. The data set is classed as ADME, organism-based. Particulars: in vivo, read-out: beta t1/2 (converted).
Data set [19] is described as follows: Tmax in human. The data set is classed as ADME, organism-based. Particulars: in vivo.

`NC1(C(=O)O)CCN(c2ncnc3c2nc(-c2ccccc2Cl)n3-c2ccc(Cl)cc2)CC1`: the Drug excretion in data set [1] was 36.3%; in data set [2] it was 30.9%; in [3], 5.4%.

As to `NC(=O)C1(NO[C@@H]2O[C@H](CO)[C@@H](O)[C@H](O)[C@H]2O)CCN(c2ncnc3c2nc(-c2ccccc2Cl)n3-c2ccc(Cl)cc2)CC1`, the Drug excretion in data set [1] and in data set [3] was 4.8% each time.

As to `NC(=O)C1(NO)CCN(c2ncnc3c2nc(-c2ccccc2Cl)n3-c2ccc(Cl)cc2)CC1`, the Drug excretion in data set [1] worked out at 1.8%; in data set [2] it was 1.2%; in data set [3], 0.6%. Besides, the Drug metabolism in [4] is reported as 8.8%.

As for `ON=C1CCN(c2ncnc3c2nc(-c2ccccc2Cl)n3-c2ccc(Cl)cc2)CC1`, the Drug uptake turned out to be 10.9 ngequiv/g in data set [5]; 6 ngequiv/g in data set [6]; 10.9 ngequiv/g in data set [7]; 10.1 ngequiv/g in [9]; 17.9 ngequiv/g in [10]. In data set [8], this molecule returned an AUC of 438 ngequiv.hr/g. In addition, the Drug metabolism in data set [4] was 13%.

The bioavailability is dose-corrected exposure relative to a reference, in per cent. Low values mean poor availability, high ones good availability. For orientation: Cmax means the maximum level reached in the sampled fluid or tissue. As a reminder, the Tmax is the time from dosing to the highest level. Consider `CCNC1(C(N)=O)CCN(c2ncnc3c2nc(-c2ccccc2Cl)n3-c2ccc(Cl)cc2)CC1.Cl` [OTENABANT HYDROCHLORIDE], for which the bioavailability in data set [11] and in data set [14] was 32% throughout. Also, in [12], the AUClast amounted to 778 ng·h/mL. The molecule also had a Cmax in data set [13] of 14 ng/mL. In data set [15], this molecule showed an AUC of 864 ng·h/mL. Besides, the time of peak concentration (Tmax) was 6 h in [16] and 4 h in data set [19]. The half-life in data set [17] is 6.62 days; in data set [18] it was 4.46 days.

The record behind these values is ChEMBL document CHEMBL3526047, “Excretion, metabolism, and pharmacokinetics of 1-(8-(2-chlorophenyl)-9-(4-chlorophenyl)-9H-purin-6-yl)-4-(ethylamino)piperidine-4-carboxamide, a selective cannabinoid receptor antagonist, in healthy male volunteers” (Drug Metab Dispos, 2012).
